# Measurements: patent publication US20240148821A1, “PHARMACEUTICAL USE OF CYCLIC PEPTIDE COMPOUND” (CHUGAI SEIYAKU KABUSHIKI KAISHA, priority 2021, published 2024)
# Numbered stars: 1 amine (or outer) side, 2 acyl side, 3 side chain; on linkers, the order of the positions; unused ones are H or OH. Bridge positions count the residues as written; N and C are the ends. Square brackets hold non-standard residues; d marks the D form. Peptide text beside a SMILES is read from it. * marks the point of attachment. hPhe(3-Cl-4-CF3) = N[C@@H](CCc1ccc(C(F)(F)F)c(Cl)c1)C(=O)O; NMePhe(2-CF3) = CN[C@@H](Cc1ccccc1C(F)(F)F)C(=O)O; NMeAla(4-thiazolyl) = CN[C@@H](Cc1cscn1)C(=O)O; NMePhe(3-CN) = CN[C@@H](Cc1cccc(C#N)c1)C(=O)O; NMePhe(4-Cl) = CN[C@@H](Cc1ccc(Cl)cc1)C(=O)O; X79 = O=C([C@H](Cc1ccc(Cl)s1)N[*:1])[*:2]; Abu(4,4,4-F3) = N[C@@H](CC(F)(F)F)C(=O)O; NMeGly(cPent) = CN[C@H](C(=O)O)C1CCCC1; Phe(3-I) = N[C@@H](Cc1cccc(I)c1)C(=O)O; NMeY = CN[C@@H](Cc1ccc(O)cc1)C(=O)O; NMeCha = CN[C@@H](CC1CCCCC1)C(=O)O; NMehLeu = CN[C@@H](CCC(C)C)C(=O)O; NMeChg = CN[C@H](C(=O)O)C1CCCCC1; NMeF = CN[C@@H](Cc1ccccc1)C(=O)O; NMeD = CN[C@@H](CC(=O)O)C(=O)O; NMeL = CN[C@@H](CC(C)C)C(=O)O; NMeV = CN[C@H](C(=O)O)C(C)C; d(β3hA) = C[C@@H](N)CC(=O)O; Azetidin(1-yl) = C1CN(*)C1; NMeAbu = CC[C@H](NC)C(=O)O; Pip = O=C(O)[C@@H]1CCCCN1; NMeA = CN[C@@H](C)C(=O)O; NMeAib = CNC(C)(C)C(=O)O; Nle = CCCC[C@H](N)C(=O)O; Piperidide = C1CCN(*)CC1; Pra = C#CC[C@H](N)C(=O)O; Ac5c = NC1(C(=O)O)CCCC1; Aze = O=C(O)[C@@H]1CCN1; CF3 = FC(F)(F)*; Sar = CNCC(=O)O
# System: Human pancreatic cancer cell line AsPC-1 (G12D mutation Kras)
# Assay: AsPC-1 cell growth inhibition (AsPC-1 CGI)
# Format: cell-based
# Details: read-out: AsPC-1 cell growth inhibition, 50% growth inhibitory concentration (IC50 value); 96 hours, CellTiter-Glo, values classified in ranges
# Method: Test compounds were serially dilated with dimethyl sulfoxide, and 200 nL was then dispensed to a U-bottom 96-well plate using Labcyte Echo. […] The cell suspension was dispensed to a. plate containing a test compound at 100 μL per well and incubated at 37° C. in a 5% carbon dioxide gas incubator. 96 hours later, 80 μL of CellTiter-Glo (Promega) was added to each well and fluorescence was measured.
row,Compound,IC50 [nM]
1,CC[C@H](C)[C@@H]1NC(=O)[C@@H]2CCCCN2C(=O)C[C@@H](C)NC(=O)[C@H](CC(C)C)N(C)C(=O)C2(CCCC2)NC(=O)[C@H](CC(C)C)N(C)C(=O)[C@H](CCc2ccc(C(F)(F)F)c(Cl)c2)NC(=O)CN(C)C(=O)[C@H](CC2CCCCC2)N(C)C(=O)CN(C)C(=O)CN(C)C1=O [Compound 213] (cyclo([Ac5c][NMeL][d(β3hA)][Pip]I[Sar][Sar][NMeCha][Sar][hPhe(3-Cl-4-CF3)][NMeL])),> 500
2,"CC(C)C[C@H]1C(=O)N[C@@H](CC(F)(F)F)C(=O)N(C)[C@@H](C)C(=O)N2CC[C@H]2C(=O)N(C)[C@@H](CC2CCCCC2)C(=O)N(C)CC(=O)N[C@@H](CCc2ccc(C(F)(F)F)c(Cl)c2)C(=O)N2CCC[C@H]2C(=O)NC2(CCCC2)C(=O)N(C)[C@@H](C(C)C)C(=O)N(C)[C@H](C(=O)N2CCCCC2)CC(=O)N1C [Compound 1864] ([NMeL][Abu(4,4,4-F3)][NMeA][Aze][NMeCha][Sar][hPhe(3-Cl-4-CF3)]P[Ac5c][NMeV][NMeD]-Piperidide; lactam N-11)",> 500
3,CC[C@H](C)[C@@H]1NC(=O)[C@H](CCC(C)C)N(C)C(=O)C[C@@H](C(=O)N2CCC2)N(C)C(=O)[C@H](C2CCCC2)N(C)C(=O)C2(CCCC2)NC(=O)[C@@H]2CCCN2C(=O)[C@H](CCc2ccc(C(F)(F)F)c(Cl)c2)NC(=O)CN(C)C(=O)[C@H](CC2CCCCC2)N(C)C(=O)[C@@H]2CCN2C(=O)[C@H](C)N(C)C1=O [Compound 806] ([NMehLeu]I[NMeA][Aze][NMeCha][Sar][hPhe(3-Cl-4-CF3)]P[Ac5c][NMeGly(cPent)][NMeD]-{Azetidin(1-yl)}; lactam N-11),≤ 20
4,CC[C@H](C)[C@@H]1NC(=O)[C@H](CC(C)C)N(C)C(=O)C[C@@H](C(=O)N2CCCCC2)N(C)C(=O)[C@H](C(C)C)N(C)C(=O)C2(CCCC2)NC(=O)[C@H](C)NC(=O)[C@H](CCc2ccc(C(F)(F)F)c(Cl)c2)NC(=O)CN(C)C(=O)[C@H](CC2CCCCC2)N(C)C(=O)[C@@H]2CCN2C(=O)[C@H](C)N(C)C1=O [Compound 1316] ([NMeL]I[NMeA][Aze][NMeCha][Sar][hPhe(3-Cl-4-CF3)]A[Ac5c][NMeV][NMeD]-Piperidide; lactam N-11),> 500
5,CC[C@H](C)[C@@H]1NC(=O)[C@H](C)N(C)C(=O)C[C@@H](C)NC(=O)[C@H](C(C)C)N(C)C(=O)[C@H](Cc2ccccc2)N(C)C(=O)[C@H](CC(C)C)N(C)C(=O)[C@H](CCc2ccc(C(F)(F)F)c(Cl)c2)NC(=O)CN(C)C(=O)[C@H](Cc2ccc(Cl)cc2)N(C)C(=O)[C@@H]2CCN2C(=O)CN(C)C1=O [Compound 994] (cyclo([Aze][NMePhe(4-Cl)][Sar][hPhe(3-Cl-4-CF3)][NMeL][NMeF][NMeV][d(β3hA)][NMeA]I[Sar])),> 500
6,CCCC[C@@H]1NC(=O)[C@H](Cc2ccc(Cl)s2)NC(=O)CN(C)C(=O)[C@H](Cc2ccc(Cl)cc2)N(C)C(=O)CN(C)C(=O)CN(C)C(=O)[C@H]([C@@H](C)CC)NC(=O)[C@H](CC(C)C)N(C)C(=O)C[C@@H](C(=O)N2CCCCC2)N(C)C(=O)[C@H](CC(C)C)NC(=O)C(C)(C)N(C)C1=O [Compound 1318] ([NMeL]I[Sar][Sar][NMePhe(4-Cl)][Sar][X79][Nle][NMeAib]L[NMeD]-Piperidide; lactam N-11),> 500
7,CC[C@H](C)[C@@H]1NC(=O)[C@H](CC(C)C)N(C)C(=O)C[C@@H](C(=O)N2CCCCC2)N(C)C(=O)[C@H](C(C)C)N(C)C(=O)C2(CCCC2)NC(=O)[C@@H]2CCCN2C(=O)[C@H](CCc2ccc(C(F)(F)F)c(Cl)c2)NC(=O)CN(C)C(=O)[C@H](Cc2cccc(C#N)c2)N(C)C(=O)CN(C)C(=O)CN(C)C1=O [Compound 710] ([NMeL]I[Sar][Sar][NMePhe(3-CN)][Sar][hPhe(3-Cl-4-CF3)]P[Ac5c][NMeV][NMeD]-Piperidide; lactam N-11),> 500
8,CC[C@H](C)[C@@H]1NC(=O)[C@H](CC(C)C)N(C)C(=O)C[C@@H](C(=O)N(C)C)N(C)C(=O)[C@H](C2CCCC2)N(C)C(=O)[C@H](C)NC(=O)[C@H](Cc2cscn2)N(C)C(=O)[C@H](CCc2ccc(C(F)(F)F)c(Cl)c2)NC(=O)CN(C)C(=O)[C@H](CC2CCCCC2)N(C)C(=O)[C@@H]2CCN2C(=O)[C@H](C)N(C)C1=O [Compound 805] ([NMeL]I[NMeA][Aze][NMeCha][Sar][hPhe(3-Cl-4-CF3)][NMeAla(4-thiazolyl)]A[NMeGly(cPent)][NMeD]-NMe2; lactam N-11),> 500
9,CC[C@H](C)[C@@H]1NC(=O)[C@H](CC(C)C)N(C)C(=O)C[C@@H](C(=O)N2CCCCC2)N(C)C(=O)[C@H](C2CCCCC2)N(C)C(=O)C2(CCCC2)NC(=O)[C@@H]2CCCN2C(=O)[C@H](CCc2ccc(C(F)(F)F)c(Cl)c2)NC(=O)CN(C)C(=O)[C@H](CC2CCCCC2)N(C)C(=O)CN(C)C(=O)[C@H](C)N(C)C1=O [Compound 1345] ([NMeL]I[NMeA][Sar][NMeCha][Sar][hPhe(3-Cl-4-CF3)]P[Ac5c][NMeChg][NMeD]-Piperidide; lactam N-11),> 500
10,CC[C@H](C)[C@@H]1NC(=O)[C@H](CC(C)C)N(C)C(=O)C[C@@H](C(=O)N2CCCCC2)N(C)C(=O)[C@H](CC)N(C)C(=O)C2(CCCC2)NC(=O)[C@@H]2CCCN2C(=O)[C@H](CCc2ccc(C(F)(F)F)c(Cl)c2)NC(=O)CN(C)C(=O)[C@H](CC2CCCCC2)N(C)C(=O)CN(C)C(=O)CN(C)C1=O [Compound 1741] ([NMeL]I[Sar][Sar][NMeCha][Sar][hPhe(3-Cl-4-CF3)]P[Ac5c][NMeAbu][NMeD]-Piperidide; lactam N-11),> 500
11,C#CC[C@@H]1NC(=O)[C@H](CC(C)C)N(C)C(=O)C[C@@H](C(=O)N2CCCCC2)N(C)C(=O)[C@H](C2CCCCC2)N(C)C(=O)C2(CCCC2)NC(=O)[C@@H]2CCCN2C(=O)[C@H](CCc2ccc(C(F)(F)F)c(Cl)c2)NC(=O)CN(C)C(=O)[C@H](CC2CCCCC2)N(C)C(=O)CN(C)C(=O)CN(C)C1=O [Compound 716] ([NMeL][Pra][Sar][Sar][NMeCha][Sar][hPhe(3-Cl-4-CF3)]P[Ac5c][NMeChg][NMeD]-Piperidide; lactam N-11),> 500
12,CCCC[C@@H]1NC(=O)[C@H](Cc2cccc(I)c2)NC(=O)CN(C)C(=O)[C@H](Cc2ccc(Cl)cc2)N(C)C(=O)CN(C)C(=O)CN(C)C(=O)[C@H]([C@@H](C)CC)NC(=O)[C@H](CC(C)C)N(C)C(=O)C[C@@H](C(=O)N2CCCCC2)N(C)C(=O)[C@H](CC(C)C)NC(=O)[C@H](Cc2ccc(Cl)cc2)N(C)C1=O [Compound 934] ([NMeL]I[Sar][Sar][NMePhe(4-Cl)][Sar][Phe(3-I)][Nle][NMePhe(4-Cl)]L[NMeD]-Piperidide; lactam N-11),> 500
13,C#CC[C@@H]1NC(=O)[C@H](Cc2cccc(I)c2)NC(=O)CN(C)C(=O)[C@H](Cc2ccc(OC)cc2)N(C)C(=O)[C@@H]2CCN2C(=O)[C@H](C)N(C)C(=O)[C@H]([C@@H](C)CC)NC(=O)[C@H](CC(C)C)N(C)C(=O)C[C@@H](C(=O)N2CCCCC2)N(C)C(=O)[C@H](CC(C)C)NC(=O)C(C)(C)N(C)C1=O [Compound 1350] ([NMeL]I[NMeA][Aze][NMeY](Me)[Sar][Phe(3-I)][Pra][NMeAib]L[NMeD]-Piperidide; lactam N-11),> 500
14,CC[C@H](C)[C@@H]1NC(=O)[C@H](CC(C)C)N(C)C(=O)C[C@@H](C(=O)N2CCCCC2)N(C)C(=O)[C@H](C2CCCCC2)N(C)C(=O)C2(CCCC2)NC(=O)[C@@H]2CCCN2C(=O)[C@H](CCc2ccc(C(F)(F)F)c(Cl)c2)NC(=O)CN(C)C(=O)[C@H](CC)N(C)C(=O)CN(C)C(=O)CN(C)C1=O [Compound 1743] ([NMeL]I[Sar][Sar][NMeAbu][Sar][hPhe(3-Cl-4-CF3)]P[Ac5c][NMeChg][NMeD]-Piperidide; lactam N-11),> 500
15,CC[C@H](C)[C@@H]1NC(=O)[C@H](CC(C)C)N(C)C(=O)C[C@@H](C(=O)N2CCCCC2)N(C)C(=O)[C@H](CC(C)C)NC(=O)C(C)(C)N(C)C(=O)[C@H](CC(C)C)NC(=O)[C@H](Cc2cccc(I)c2)NC(=O)CN(C)C(=O)[C@H](Cc2ccc(Cl)cc2)N(C)C(=O)CN(C)C(=O)CN(C)C1=O [Compound 295] ([NMeL]I[Sar][Sar][NMePhe(4-Cl)][Sar][Phe(3-I)]L[NMeAib]L[NMeD]-Piperidide; lactam N-11),> 500
16,C#CC[C@@H]1NC(=O)[C@H](Cc2cccc(I)c2)NC(=O)CN(C)C(=O)[C@H](Cc2ccc(OC(F)(F)F)cc2)N(C)C(=O)[C@@H]2CCN2C(=O)CN(C)C(=O)[C@H]([C@@H](C)CC)NC(=O)[C@H](CC(C)C)N(C)C(=O)C[C@@H](C(=O)N2CCCCC2)N(C)C(=O)[C@H](CC(C)C)NC(=O)C(C)(C)N(C)C1=O [Compound 1298] ([NMeL]I[Sar][Aze][NMeY](CF3)[Sar][Phe(3-I)][Pra][NMeAib]L[NMeD]-Piperidide; lactam N-11),> 500
17,CC[C@H](C)[C@@H]1NC(=O)[C@H](CC(C)C)N(C)C(=O)C[C@@H](C)NC(=O)[C@H](C(C)C)N(C)C(=O)C2(CCCC2)NC(=O)[C@@H]2CCCN2C(=O)[C@H](CCc2ccc(C(F)(F)F)c(Cl)c2)NC(=O)CN(C)C(=O)[C@H](Cc2ccccc2C(F)(F)F)N(C)C(=O)CN(C)C(=O)CN(C)C1=O [Compound 1613] (cyclo([Ac5c][NMeV][d(β3hA)][NMeL]I[Sar][Sar][NMePhe(2-CF3)][Sar][hPhe(3-Cl-4-CF3)]P)),> 500
18,CC[C@H](C)[C@@H]1NC(=O)[C@H](C)N(C)C(=O)C[C@@H](C(=O)N2CCCCC2)N(C)C(=O)[C@H](C(C)C)N(C)C(=O)C(C)(C)N(C)C(=O)[C@@H]2CCCN2C(=O)[C@H](CCc2ccc(C(F)(F)F)c(Cl)c2)NC(=O)CN(C)C(=O)[C@H](CC2CCCCC2)N(C)C(=O)CN(C)C(=O)CN(C)C1=O [Compound 507] ([NMeA]I[Sar][Sar][NMeCha][Sar][hPhe(3-Cl-4-CF3)]P[NMeAib][NMeV][NMeD]-Piperidide; lactam N-11),> 500
19,CC[C@H](C)[C@@H]1NC(=O)[C@H](C)N(C)C(=O)C[C@@H](C(=O)N2CCCCC2)N(C)C(=O)[C@H](C(C)C)N(C)C(=O)C2(CCCC2)NC(=O)[C@@H]2CCCN2C(=O)[C@H](CCc2ccc(C(F)(F)F)c(Cl)c2)NC(=O)CN(C)C(=O)[C@H](CC2CCCCC2)N(C)C(=O)[C@@H]2CCCN2C(=O)CN(C)C1=O [Compound 1121] ([NMeA]I[Sar]P[NMeCha][Sar][hPhe(3-Cl-4-CF3)]P[Ac5c][NMeV][NMeD]-Piperidide; lactam N-11),> 500
